We go through 24 compounds from paper PMC8243516, “Inhibition of lysosomal phospholipase A2 predicts drug-induced phospholipidosis” (Journal of Lipid Research, 2021).

The subject of data set [1] is phospholipidosis. To be noted: phospholipidosis reported in vivo, species codes; Refs of Table 1; cited from earlier work.
The subject of data set [2] is phospholipidosis. The following applies: phospholipidosis reported in vitro; Refs of Table 1; cited from earlier work.
Data set [3] has as its target T1, LPLA2 (Mus musculus, UniProt Q8VEB4).
T1 construct: purchased Proteos Inc. (Kalamazoo, MI)
T1 sequence (Q8VEB4 34-412): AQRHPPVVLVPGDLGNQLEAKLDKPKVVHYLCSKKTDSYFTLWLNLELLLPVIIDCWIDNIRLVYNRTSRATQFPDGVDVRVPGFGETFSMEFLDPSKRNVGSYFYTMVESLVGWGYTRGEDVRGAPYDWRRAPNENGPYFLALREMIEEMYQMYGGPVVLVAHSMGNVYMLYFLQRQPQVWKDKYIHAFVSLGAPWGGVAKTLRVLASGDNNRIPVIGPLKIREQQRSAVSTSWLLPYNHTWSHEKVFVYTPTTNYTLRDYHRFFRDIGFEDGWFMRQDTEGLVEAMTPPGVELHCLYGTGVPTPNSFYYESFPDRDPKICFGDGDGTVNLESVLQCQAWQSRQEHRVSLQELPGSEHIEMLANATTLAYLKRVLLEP
The experiment in a line: LPLA2 thermal stability measurement (SYPRO Orange Tm). Format: binding. The following applies: N=3 ± SD.

In data set [4] the target is T2, recombinant mouse LPLA2 (PLA2G15) (Mus musculus, UniProt Q8VEB4).
T2 construct: purchased Proteos Inc. (Kalamazoo, MI)
T2 sequence (Q8VEB4 34-412): T1 sequence (Q8VEB4 34-412)
Description: Transacylase activity of LPLA2 (1-O-acyl-N-acetylsphingosine synthase, cell-free liposome assay). Format: biochemical. To be noted: for IC50: 1-O-acyl N-acetylsphingosine synthase activity, pH 4.5, DOPC/sulfatide liposomes, read-out: LPLA2 IC50.

The conditions of data set [5]: ref Pubchem and chEMBL databases; cited from earlier work.

Consider `CCCCc1oc2ccccc2c1C(=O)c1cc(I)c(OCCN(CC)CC)c(I)c1` [Amiodarone, {2-[4-(2-butyl-1-benzofuran-3-carbonyl)-2,6-diiodophenoxy]ethyl} diethyl amine], for which, in data set [1], the “In Vivo PLD” value was “H,R”. The “In Vitro PLD” value in data set [2] is “Yes”.

For `CN(C)CCC=C1c2ccccc2CCc2ccccc21` [Amitriptyline, dimethyl(3-{tricyclo[9.4.0.0^3,^8]pentadeca-1(15),3,5,7,11,13-hexaen-2-ylidene}propyl)amine], the “In Vivo PLD” value in data set [1] is reported as “R”. Besides, the “In Vitro PLD” value in data set [2] is listed as “Yes”. In data set [3], the “(ΔTm)c-(ΔTm)d, difference in melting temperature of LPLA2 alone or in the presence of drug” value (from here on “(ΔTm)c-(ΔTm)d, difference”) was -0.5 ± 0.0 °C. Further, in data set [4], the IC50 (usually the concentration at which inhibition is half-maximal) was 14.7 µM.

As for `CCN(CC)CCCC(C)Nc1ccnc2cc(Cl)ccc12` (stereo not drawn) [Chloroquine, 7-chloro-N-[5-(diethylamino)pentan-2-yl]quinolin-4-amine], the “In Vivo PLD” value in data set [1] is given as “H, R, D, M”. Besides, the “In Vitro PLD” value in data set [2] was “Yes”. Moreover, the IC50 in data set [4] amounted to 655 µM.

Turning to `CN(C)CCCN1c2ccccc2Sc2ccc(Cl)cc21` [Chlorpromazine, [3-(2-chloro-10H-phenothiazin-10-yl)propyl] dimethylamine], the “In Vivo PLD” value in data set [1] was “R, D”. In addition, the “In Vitro PLD” value in data set [2] is listed as “Yes”. Besides, the “(ΔTm)c-(ΔTm)d, difference” value in data set [3] is -2.1 ± 0.2 °C. The IC50 in data set [4] was found to be 9.01 µM.

With `CN(C)CCCC1(c2ccc(F)cc2)OCc2cc(C#N)ccc21` (stereo not drawn) [Citalopram, 1-[3-(dimethylamino)propyl]-1-(4-fluorophenyl)-1,3-dihydro-2-benzofuran-5-carbonitrile], the “In Vivo PLD” value in data set [1] is “Yes”. Further, the “In Vitro PLD” value in data set [2] is recorded as “Yes”. The “(ΔTm)c-(ΔTm)d, difference” value in data set [3] came to 0 °C. Besides, the IC50 in data set [4] worked out at 19.5 µM.

With `CCC[C@@H]1C[C@@H](C(=O)NC(C(C)Cl)[C@H]2O[C@H](SC)[C@H](O)[C@@H](O)[C@H]2O)N(C)C1` (stereo partly drawn) [Clindamycin, (2S,4R)-N-{2-chloro-1-[(2R,3R,4S,5R,6R)-3,4,5-trihydroxy-6-(methylsulfanyl)oxan-2-yl]propyl}-1-methyl-4-propylpyrrolidine-2-carboxamide], the “In Vivo PLD” value in data set [1] is “Yes”. Moreover, the “In Vitro PLD” value in data set [2] is “Yes”.

With `CN(C)CCC=C1c2ccccc2C=Cc2ccccc21` [Cyclobenzaprine, dimethyl(3-{tricyclo[9.4.0.0^3,^8]pentadeca-1(15),3,5,7,9,11,13-heptaen-2-ylidene}propyl)amine], in data set [1], the “In Vivo PLD” value was “Yes”. For the same compound, the “In Vitro PLD” value in data set [2] is “Yes”. Moreover, the half-maximal inhibitory concentration (IC50) in data set [4] was determined as 6.24 µM.

As to `CNCCCN1c2ccccc2CCc2ccccc21` [Desipramine, (3-{2-azatricyclo [9.4.0.0]pentadeca-1(15),3,5,7,11,13-hexaen-2-yl}propyl)(methyl)amine], the “In Vivo PLD” value in data set [1] is given as “R”. For the same compound, the “In Vitro PLD” value in data set [2] was “Yes”. Moreover, in data set [3], the “(ΔTm)c-(ΔTm)d, difference” value came to 1.60 ± 0.1 °C. Moreover, in data set [4], the IC50 came to 25.7 µM.

For `CN(C)CCC=C1c2ccccc2COc2ccccc21` [Doxepin, dimethyl(3-{9-oxatricyclo[9.4.0.0ˆ[1]]pentadeca-1(15),3,5,7,11,13-hexaen-2-ylidene}propyl)amine], the “pKa (basic)” value in data set [5] is reported as 9.76. The “In Vivo PLD” value in data set [1] was “Yes”. Further, the “In Vitro PLD” value in data set [2] is “Yes”.

With `CNCCC(Oc1ccc(C(F)(F)F)cc1)c1ccccc1` (stereo not drawn) [Fluoxetine, methyl({3-phenyl-3-[4-(trifluoromethyl)phenoxy]propyl}) amine], the “In Vivo PLD” value in data set [1] is “H,R,M”. In addition, the “In Vitro PLD” value in data set [2] was “Yes”.

On to `OCCOCCN1CCN(C(c2ccccc2)c2ccc(Cl)cc2)CC1` (stereo not drawn) [Hydroxyzine, 2-(2-{4-[(4-chlorophenyl) (phenyl)methyl]piperazin-1-yl}ethoxy)ethan-1-ol], for which, in data set [5], the “pKa (basic)” value is 7.82. The “In Vivo PLD” value in data set [1] is given as “R”. For the same compound, the “(ΔTm)c-(ΔTm)d, difference” value in data set [3] was -0.10 ± 0.0 °C. In addition, the IC50 in data set [4] was determined as 63 µM.

For `CN(C)CCCN1c2ccccc2CCc2ccccc21` [Imipramine, (3-{2-azatricyclo[9.4.0.0^3,^8]pentadeca-1(15),3,5,7,11, 13-hexaen-2-yl}propyl)dimethylamine], the “pKa (basic)” value in data set [5] is 9.2. Besides, the “In Vivo PLD” value in data set [1] was “R”. For the same compound, the “In Vitro PLD” value in data set [2] is “Yes”. The “(ΔTm)c-(ΔTm)d, difference” value in data set [3] is 0 °C. Further, the IC50 in data set [4] came to 27.6 µM.

With `O=C(NC1CCN(CCc2c[nH]c3ccccc23)CC1)c1ccccc1` [Indoramin, N-{1-[2-(1H-indol-3-yl)ethyl]piperidin-4-yl} benzamide], the “pKa (basic)” value in data set [5] was 9.59. The “In Vivo PLD” value in data set [1] was “R”. Further, the “In Vitro PLD” value in data set [2] is recorded as “Yes”. Besides, the “(ΔTm)c-(ΔTm)d, difference” value in data set [3] stood at 1.08 ± 0.4 °C. Moreover, the IC50 in data set [4] stood at 124 µM.

For the compound `CNCCCC12CCC(c3ccccc31)c1ccccc12` [Maprotiline, methyl(3-{tetracyclo [6.6.2.0^2,^7.0^9,^14]hexadeca-2,4,6,9,11, 13-hexaen-1-yl}propyl)amine], in data set [5], the “pKa (basic)” value is 10.54. The “In Vivo PLD” value in data set [1] is “R”.

For `C1CCC(C(CC2CCCCN2)C2CCCCC2)CC1` (stereo not drawn) [Perhexiline, 2-(2,2-dicyclohexylethyl) piperidine], the “pKa (basic)” value in data set [5] is on record as 10.58. Moreover, the “In Vivo PLD” value in data set [1] is recorded as “H,R,M”. Moreover, in data set [2], the “In Vitro PLD” value was “Yes”. Besides, in data set [3], the “(ΔTm)c-(ΔTm)d, difference” value was -0.12 ± 0.0 °C. For the same compound, the IC50 in data set [4] stood at 11.7 µM.

Consider `CN(C)CCCN1c2ccccc2Sc2ccccc21` [Promazine, dimethyl[3-(10H-phenothiazin-10-yl)propyl]amine], for which, in data set [5], the “pKa (basic)” value is listed as 9.2. The “In Vivo PLD” value in data set [1] is on record as “R”. For the same compound, in data set [2], the “In Vitro PLD” value was “Yes”. Moreover, the “(ΔTm)c-(ΔTm)d, difference” value in data set [3] was -0.10 ± 0.0 °C. Also, in data set [4], the IC50 is 39 µM.

As for `CC(CN1c2ccccc2Sc2ccccc21)N(C)C` (stereo not drawn) [Promethazine, dimethyl[1-(10H-phenothiazin-10-yl)propan-2-yl] amine], in data set [1], the “In Vivo PLD” value is listed as “Yes”. In addition, the “In Vitro PLD” value in data set [2] is “Yes”. Besides, in data set [3], the “(ΔTm)c-(ΔTm)d, difference” value is 1.45 ± 0.5 °C. Also, the IC50 in data set [4] is 40.3 µM.

For `CCN(CC)CCCC(C)Nc1c2ccc(Cl)cc2nc2ccc(OC)cc12.Cl.Cl` (stereo not drawn) [Quinacrine, 6-chloro-9-(4-diethylamino-1-methylbutylamino)-2-methoxyacridine dihydrochloride], the “In Vivo PLD” value in data set [1] is given as “R”. Also, the “In Vitro PLD” value in data set [2] is given as “Yes”.

Turning to `C=C[C@H]1C[N@@]2CC[C@H]1C[C@H]2[C@H](O)c1ccnc2ccc(OC)cc12` [Quinine, (R)-[(1S,2S,4S,5R)-5-ethenyl-1-azabicyclo [2.2.2]octan-2-yl](6-methoxyquinolin-4-yl)methanol], the “In Vivo PLD” value in data set [1] is recorded as “Yes”. For the same compound, the “(ΔTm)c-(ΔTm)d, difference” value in data set [3] was -1.00 ± 0.1 °C. In addition, in data set [4], the IC50 amounted to 164 µM.

Consider `CN[C@H]1CC[C@@H](c2ccc(Cl)c(Cl)c2)c2ccccc21` [Sertraline, (1S,4S)-4-(3,4-dichlorophenyl)-N-methyl-1,2,3,4-tetrahydronaphthalen-1-amine], for which the “In Vivo PLD” value in data set [1] is recorded as “Yes”. Besides, the “In Vitro PLD” value in data set [2] was “Yes”.

Turning to `CCN1CCCC1CNC(=O)c1cc(S(N)(=O)=O)ccc1OC` (stereo not drawn) [Sulpiride, N-[(1-ethylpyrrolidin-2-yl)methyl]-2-methoxy-5-sulfamoylbenzamide], in data set [5], the “pKa (basic)” value is 8.4. Besides, the “In Vivo PLD” value in data set [1] is recorded as “Yes”. In data set [3], the “(ΔTm)c-(ΔTm)d, difference” value is 1.34 ± 0.9 °C. Besides, in data set [4] (acyl transferase activity), the “LPLA2 inhibition (in words)” value is listed as “no inhibitory activity”.

As for `NC[C@H]1O[C@H](O[C@H]2[C@H](O)[C@@H](O[C@H]3O[C@H](CO)[C@@H](O)[C@H](N)[C@H]3O)[C@H](N)C[C@@H]2N)[C@H](N)C[C@@H]1O` [Tobramycin, O-[3-amino-3-deoxy-α-D-glucopyranosyl-(1→6)]-O-[2,6-diamino-2,3,6-trideoxy-α-D-ribohexopyranosyl-(1→4)]-2-deoxy-D-streptamine], the “pKa (basic)” value in data set [5] is reported as 9.8. For the same compound, the “In Vivo PLD” value in data set [1] is listed as “R,H”. The “In Vitro PLD” value in data set [2] is given as “Yes”. The “(ΔTm)c-(ΔTm)d, difference” value in data set [3] was found to be 0.27 ± 0.1 °C. For the same compound, in data set [4], the half-maximal inhibitory concentration (IC50) stood at 33 µM.

With `CCN(CC)CCOc1ccc(C(O)(Cc2ccc(Cl)cc2)c2ccc(C)cc2)cc1` (stereo not drawn) [Triparanol, 1-(4-(2-diethylaminoethoxy)phenyl)-1-p-tolyl-2-(4-chlorophenyl)ethanol], the “pKa (basic)” value in data set [5] is recorded as 13.44. In addition, in data set [1], the “In Vivo PLD” value is “R, M, Ha”. The “In Vitro PLD” value in data set [2] is given as “Yes”. For the same compound, the “(ΔTm)c-(ΔTm)d, difference” value in data set [3] was 0 °C. Moreover, in data set [4], the IC50 amounted to 7.8 µM.

With `Clc1ccccc1CNC[C@H]1CC[C@H](CNCc2ccccc2Cl)CC1` [ay-9944, trans-1,4-bis(2-chlorobenzylaminomethyl) cyclohexane], in data set [5], the “pKa (basic)” value is recorded as 9.1. In addition, the “In Vivo PLD” value in data set [1] is on record as “R,Ra, M”. In data set [2], the “In Vitro PLD” value is reported as “Yes”. Further, the “(ΔTm)c-(ΔTm)d, difference” value in data set [3] worked out at 0.58 ± 0.4 °C. In addition, the half-maximal inhibitory concentration (IC50) in data set [4] was 116 µM.
